Results as given in patent US5391540A, “Substituted pyridine compounds” (Rohm and Haas Company, priority 1993, dated 1995).

Experiments:
Assay type in all cases: in vivo
[1] = tested on: Seedling Johnsongrass; test: Pre-emergent herbicidal activity (Table A); details: Sorghum halepense, pre-emergence, Sejg, 11.2 kg/ha, 10-14 days, read-out: herbicidal rating (% inhibition)
Summary of the method: (§1)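 Seeds were sown on compacted topsoil and covered with soil into which test compound (in acetone or water carrier) had been mixed at 11.2 kg/ha. Pans were kept watered on a greenhouse bench, and percent inhibition was scored as a rating about 10-14 days (usually 11) after treatment.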

[2] = tested on: Annual Bluegrass; test: Pre-emergent herbicidal activity (Table A); details: pre-emergence, Anbg, 11.2 kg/ha, 10-14 days, read-out: herbicidal rating (% inhibition)
Summary of the method: as §1

[3] = tested on: Indian Mustard; test: Pre-emergent herbicidal activity (Table A); details: Brassica juncea, pre-emergence, Inmu, 11.2 kg/ha, 10-14 days, read-out: herbicidal rating (% inhibition)
Summary of the method: as §1

[4] = tested on: Wild Buckwheat; test: Pre-emergent herbicidal activity (Table A); details: Fallopia convolvulus, pre-emergence, Wibw, 11.2 kg/ha, 10-14 days, read-out: herbicidal rating (% inhibition)
Summary of the method: as §1

[5] = tested on: Grso; test: plant injury after spraying emerged plants (Table D); parameters: scale not given here
Summary of the method: (§2)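 Injury to emerged plants was assessed after spraying. Plants came from seeds or propagules sown into sterilized, sieved silt-loam topsoil under a 1.27 cm layer of 50% topsoil with peat moss, vermiculite and wetting agent, then kept on greenhouse capillary mats with subirrigation.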

[6] = tested on: Mogl; test: as above; parameters: scale not given here
Summary of the method: as §2

[7] = tested on: Wibw; test: as above; parameters: scale not given here
Summary of the method: as §2

[8] = tested on: Vele; test: as above; parameters: scale not given here
Summary of the method: as §2

[9] = tested on: Hese; test: as above; parameters: scale not given here
Summary of the method: as §2

[10] = tested on: Cotz; test: as above; parameters: scale not given here
Description: (§3) Topsoil (silt loam) is sieved through a screen having 1.27 cm openings. In some of the tests the soil was mixed with fertilizer (1225 g/cu. m of 12/5/9 containing isobutylidene diurea), while in other tests the fertilizer was omitted. This mixture is steam sterilized and then placed in aluminum pans 6.985 cm deep having ten holes in the bottom each 0.635 cm in diameter. The soil mixture is compacted to a depth of 1.27 cm. from the top of the pan. A predetermined number of seeds of each of several dicotyledonous and monocotyledonous annual plant species and/or vegetative propagules for the perennial plant species are placed on the soil and pressed into the soil surface. The seeds and/or vegetative propagules are covered with 1.27 cm of a mixture of 50% topsoil and 50% of a mixture of Canadian sphagnum peat moss, vermiculite and a wetting agent. The pans are then placed on a capillary mat on a greenhouse bench and subirrigated as needed. After the plants reach the desired stage (9 to 14 days, 1 to 3 true leaf stage), each pan (except the control pans) is removed to a spraying chamber and sprayed by means of an atomizer, operating at a spray pressure of 170.3 kPa ([…]) at the application rates noted in Table D. In the spray solution is an amount of an emulsifying agent mixture (35% butylamine salt of dodecylbenzenesulfonic acid and 65% tall oil condensed with ethylene oxide in the ratio of 11 mols of ethylene oxide/mol of tall oil) to give a spray solution or suspension. The spray solution or suspension contains a sufficient amount of the candidate chemical in order to give application rates of the active ingredient corresponding to those shown in Table D below while applying a total amount of solution or suspension equivalent to 1870 L/Ha (200 gallons/acre). The pans are returned to the greenhouse and watered as before and the injury to the plants as compared to the control pans is observed at approximately 10-14 days (usually 11 days).
(§4) In the following Table D the legends used to identify the plant species are the same as those used in the preceding Table B.

[11] = tested on: Cocw; test: as above; parameters: scale not given here
Description: as §3, §4

[12] = tested on: Rape; test: as above; parameters: scale not given here
Description: as §3, §4

SMILES	inhibition at 11200 g/ha [1]	inhibition at 11200 g/ha [2]	inhibition at 11200 g/ha [3]	inhibition at 11200 g/ha [4]	plant injury rating, Grso ([5]; 0.2803 kg/ha)	plant injury rating, Grso ([5]; 1.1210 kg/ha)	plant injury rating, Grso ([5]; 5.6050 kg/ha)	plant injury rating, Mogl ([6]; 0.2803 kg/ha)	plant injury rating, Mogl ([6]; 1.1210 kg/ha)	plant injury rating, Mogl ([6]; 5.6050 kg/ha)	plant injury rating, Wibw ([7]; 0.2803 kg/ha)	plant injury rating, Wibw ([7]; 5.6050 kg/ha)	plant injury rating, Vele ([8]; 0.2803 kg/ha)	plant injury rating, Vele ([8]; 1.1210 kg/ha)	plant injury rating, Vele ([8]; 5.6050 kg/ha)	plant injury rating, Hese ([9]; 0.2803 kg/ha)	plant injury rating, Hese ([9]; 1.1210 kg/ha)	plant injury rating, Hese ([9]; 5.6050 kg/ha)	plant injury rating, Cotz ([10]; 1.1210 kg/ha)	plant injury rating, Cotz ([10]; 5.6050 kg/ha)	other results
COC(=O)c1c(OC)nc(C(F)(F)F)c(C(=O)n2cccn2)c1CC1CC1 [Compound 116, 3-pyridinecarboxylic acid, 4-(cyclopropylmethyl)-2-methoxy-5-(1H-pyrazo1-1-ylcarbonyl)-6-(trifluoromethyl)-, methyl ester]	75 to 100%	75 to 100%	75 to 100%	75 to 100%	0	0	1	1	2	2	1	2	2	3	2	1	2	2	1	1	plant injury rating, Mogl ([6]; 0.0701 kg/ha): 2; plant injury rating, Wibw ([7]; 0.0701 kg/ha): 1; plant injury rating, Wibw ([7]; 1.1210 kg/ha): 2; plant injury rating, Vele ([8]; 0.0701 kg/ha): 1; plant injury rating, Hese ([9]; 0.0701 kg/ha): 1; plant injury rating, Cotz ([10]; 0.0701 kg/ha): 0; plant injury rating, Cotz ([10]; 0.2803 kg/ha): 0; plant injury rating, Cocw ([11]; 0.0701 kg/ha): 0; plant injury rating, Cocw ([11]; 0.2803 kg/ha): 1; plant injury rating, Cocw ([11]; 1.1210 kg/ha): 2; plant injury rating, Cocw ([11]; 5.6050 kg/ha): 2; plant injury rating, Rape ([12]; 0.0701 kg/ha): 1; plant injury rating, Rape ([12]; 0.2803 kg/ha): 2; plant injury rating, Rape ([12]; 1.1210 kg/ha): 3; plant injury rating, Rape ([12]; 5.6050 kg/ha): 3
COC(=O)c1c(OC)nc(C(F)(F)F)c(C(=O)n2ccc(F)n2)c1C1CCC1 [Compound 140, 3-pyridinecarboxylic acid, 4-cyclobuty1-5-[(3-fluoro-1H-pyrazo1-1-yl)carbonyl]-2-methoxy-6-(trifluoromethyl)-, methyl ester]	75 to 100%	75 to 100%	75 to 100%	75 to 100%	0	0	0	2	2	2	0	1	3	2	2	3	3	3	1	1	plant injury rating, Cocw ([11]; 0.2803 kg/ha): 2; plant injury rating, Cocw ([11]; 1.1210 kg/ha): 2; plant injury rating, Cocw ([11]; 5.6050 kg/ha): 3; plant injury rating, Rape ([12]; 0.2803 kg/ha): 3; plant injury rating, Rape ([12]; 1.1210 kg/ha): 3; plant injury rating, Rape ([12]; 5.6050 kg/ha): 3
COC(=O)c1c(OC)nc(C(F)(F)F)c(C(=O)Cl)c1CC1CC1 [Compound 113, 3-pyridinecarboxylic acid, 5-(chlorocarbonyl)-4-(cyclopropylmethyl)-2-methoxy-6-(trifluoromethyl)-, methyl ester]	75 to 100%	75 to 100%	0 to 24%	25 to 49%	0	0	0	0	0	1	0	1	0	0	1	0	0	1	0	0	plant injury rating, Wibw ([7]; 1.1210 kg/ha): 0; plant injury rating, Cotz ([10]; 0.2803 kg/ha): 0; plant injury rating, Cocw ([11]; 0.2803 kg/ha): 0; plant injury rating, Cocw ([11]; 5.6050 kg/ha): 0; plant injury rating, Rape ([12]; 0.2803 kg/ha): 0; plant injury rating, Rape ([12]; 1.1210 kg/ha): 0; plant injury rating, Rape ([12]; 5.6050 kg/ha): 1
COC(=O)c1c(OC)nc(C(F)(F)F)c(C(=O)SC)c1C1CCC1 [Compound 137, 3-pyridinecarboxylic acid, 4-cyclobuty1-2-methoxy-5-[(methylthio)carbonyl]-6-(trifluoromethyl)-, methyl ester]	75 to 100%	75 to 100%	75 to 100%	75 to 100%	0	0	2	1	1	2	0	2	3	3	2	1	3	3	2	2	plant injury rating, Wibw ([7]; 1.1210 kg/ha): 3; plant injury rating, Cotz ([10]; 0.2803 kg/ha): 1; plant injury rating, Cocw ([11]; 0.2803 kg/ha): 2; plant injury rating, Cocw ([11]; 1.1210 kg/ha): 3; plant injury rating, Cocw ([11]; 5.6050 kg/ha): 3; plant injury rating, Rape ([12]; 0.2803 kg/ha): 3; plant injury rating, Rape ([12]; 1.1210 kg/ha): 3; plant injury rating, Rape ([12]; 5.6050 kg/ha): 3
